In PubChem BioAssay AID330 (DTP/NCI, 2004) one finds T/C data, which are given here for 26 compounds.

Values joined by “and” are separate entries in the source; they are usually repeats but may differ in a detail not shown here. Identical values can stand only once. Inconclusive results and toxic doses are left out. Peptide text beside a SMILES is read from it. * marks the point of attachment. Cbz = O=C(OCc1ccccc1)*; Bn = c1ccc(C*)cc1

For the test, the system named is P388 leukemia ip, CD2F1 mice, survival T/C. In words: NCI In Vivo Anticancer Drug Screen. Data for tumor model P388 Leukemia (intraperitoneal) in CD2F1 (CDF1) mice. The following applies: endpoint: median survival time, higher = longer survival. The method in brief:
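Mice carrying the transplanted tumor received test compound or vehicle. Survival was recorded in each group, and the value is the treated-group measurement divided by that of the vehicle-treated control group.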

Where [1] appears, read: dose: 50.0 mg/kg/injection, schedule: Q01DX005 (ip), vehicle: saline.
Setting [2] is: dose: 100.0 mg/kg/injection, schedule: Q01DX005 (ip), vehicle: saline.
Setting [3] is: dose: 200.0 mg/kg/injection, schedule: Q01DX005 (ip), vehicle: saline.
The mark [4] stands for this setting: dose: 100.0 mg/kg/injection, schedule: Q04DX002 (ip), vehicle: saline with Tween-80.
[5] abbreviates: dose: 100.0 mg/kg/injection, schedule: Q01DX001 (ip), vehicle: saline with Tween-80.
The mark [6] stands for this setting: dose: 60.0 mg/kg/injection, schedule: Q01DX005 (ip), vehicle: saline with Tween-80.
Where [7] appears, read: dose: 120.0 mg/kg/injection, schedule: Q01DX005 (ip), vehicle: saline with Tween-80.
Setting [8] is: dose: 240.0 mg/kg/injection, schedule: Q01DX005 (ip), vehicle: saline with Tween-80.
The mark [9] stands for this setting: dose: 50.0 mg/kg/injection, schedule: Q01DX009 (ip), vehicle: Klucel (hydroxypropylcellulose) (HPC).
[10] abbreviates: dose: 100.0 mg/kg/injection, schedule: Q01DX009 (ip), vehicle: Klucel (hydroxypropylcellulose) (HPC).
[11] abbreviates: dose: 200.0 mg/kg/injection, schedule: Q01DX009 (ip), vehicle: Klucel (hydroxypropylcellulose) (HPC).
The mark [12] stands for this setting: dose: 50.0 mg/kg/injection, schedule: Q01DX005 (ip), vehicle: saline with Tween-80.
The mark [13] stands for this setting: dose: 100.0 mg/kg/injection, schedule: Q01DX005 (ip), vehicle: saline with Tween-80.
[14] abbreviates: dose: 50.0 mg/kg/injection, schedule: Q01DX005 (ip), vehicle: Klucel (hydroxypropylcellulose) (HPC).
Setting [15] is: dose: 100.0 mg/kg/injection, schedule: Q01DX005 (ip), vehicle: Klucel (hydroxypropylcellulose) (HPC).
[16] abbreviates: dose: 200.0 mg/kg/injection, schedule: Q01DX005 (ip), vehicle: Klucel (hydroxypropylcellulose) (HPC).
Setting [17] is: dose: 12.5 mg/kg/injection, schedule: Q01DX005 (ip), vehicle: saline.
[18] abbreviates: dose: 25.0 mg/kg/injection, schedule: Q01DX005 (ip), vehicle: saline.

Regarding `CCCCNC(c1ccc(N(CC)CC)cc1)C(Br)(Br)Br` (stereo not given), the T/C under setting [1] was 114 % of control, the T/C under setting [2] was 101 % of control and the T/C under setting [3] was 107 % of control.

Take `CC1(C)C(c2ccccc2)C1(Cl)Cl` (stereo not given): the T/C is, setting by setting: under setting [4], 99 % of control; (dose: 200.0 mg/kg/injection, schedule: Q04DX002 (ip), vehicle: saline with Tween-80) 93 % of control.

Take `C/C(=N\SC(c1ccccc1)(c1ccccc1)c1ccccc1)c1ccccc1`: the T/C under setting [5] was 95 % of control and the T/C (dose: 200.0 mg/kg/injection, schedule: Q01DX001 (ip), vehicle: saline with Tween-80) was 88 % of control.

Take `COC(=O)C(N)C(C)C` (stereo not given): the T/C is, setting by setting: under setting [1], 100 % of control; under setting [2], 92 % of control.

With `C[P+]1(CCc2ccc(Cl)cc2)CC=CC1`, the T/C (dose: 25.0 mg/kg/injection, schedule: Q04DX002 (ip), vehicle: saline) was 101 % of control and the T/C (dose: 50.0 mg/kg/injection, schedule: Q04DX002 (ip), vehicle: saline) was 101 % of control.

In the case of `COC(=O)C(=O)C1CSC2=C(CS(=O)(=O)c3ccccc32)C1=O` (stereo not given), the T/C runs as follows: under setting [6], 98 % of control; under setting [7], 104 % of control; under setting [8], 104 % of control.

With `O=C(O)C1CCC(=O)N1Cc1ccccc1` (stereo not given), the T/C is, setting by setting: under setting [9], 89 % of control; under setting [10], 100 % of control; under setting [11], 107 % of control.

Turning to `COC(=O)C1=C(C)NC(C)=C(C(=O)OCCCN2CCC(c3ccccc3)(c3ccccc3)CC2)C1c1cccc([N+](=O)[O-])c1` (stereo not given), the T/C reads like this: (dose: 15.0 mg/kg/injection, schedule: Q01DX005 (ip), vehicle: saline with Tween-80) 100 % of control; (dose: 30.0 mg/kg/injection, schedule: Q01DX005 (ip), vehicle: saline with Tween-80) 103 % of control; under setting [6], 99 % of control.

For `C[C@]12CC[C@H](OC(=O)Cc3ccc(N(CCCl)CCCl)cc3)CC1CC[C@@H]1C2CC[C@]2(C)NC(=O)CCC12` (stereo not given in full), the T/C was 195 % of control (dose: 50.0 mg/kg/injection, schedule: Q01DX001 (ip), vehicle: saline with Tween-80); 243 % of control and 294 % of control under setting [5].

In the case of `NC(=S)c1ccc(C2Nc3ccccc3N2)cc1`, the T/C is 95 % of control (dose: 25.0 mg/kg/injection, schedule: Q04DX002 (ip), vehicle: saline with Tween-80); 92 % of control (dose: 50.0 mg/kg/injection, schedule: Q04DX002 (ip), vehicle: saline with Tween-80); 87 % of control and 91 % of control under setting [4].

In the case of `CC(C)(C)N=C(CCN1CCN(CCC(=NC(C)(C)C)Nc2ccc(Cl)cc2)CC1)Nc1ccc(Cl)cc1`, the T/C is, setting by setting: under setting [9], 87 % of control; under setting [10], 93 % of control; under setting [11], 96 % of control.

As to `CC1(C)CCC2(C)N(c3ccccc3)C(=O)ON12` (stereo not given), the T/C runs as follows: under setting [12], 102 % of control; under setting [13], 100 % of control; (dose: 200.0 mg/kg/injection, schedule: Q01DX005 (ip), vehicle: saline with Tween-80) 99 % of control.

On to `CCOC(=O)c1ccc(N2C(=O)OC(C)(C)C2=O)cc1`, for which the T/C is 103 % of control under setting [14], 97 % of control under setting [15] and 101 % of control under setting [16].

Turning to `O=C(NC1CCCCC1)OCc1c(COC(=O)NC2CCCCC2)c(-c2ccc(Cl)c(Cl)c2)n2c1CCCC2`, the T/C (dose: 12.5 mg/kg/injection, schedule: Q01DX009 (ip), vehicle: distilled water + Tween-80) is 96 % of control; the T/C (dose: 25.0 mg/kg/injection, schedule: Q01DX009 (ip), vehicle: distilled water + Tween-80) is 89 % of control and 91 % of control; the T/C (dose: 50.0 mg/kg/injection, schedule: Q01DX009 (ip), vehicle: distilled water + Tween-80) was 87 % of control and 96 % of control; the T/C (dose: 100.0 mg/kg/injection, schedule: Q01DX009 (ip), vehicle: distilled water + Tween-80) was 99 % of control and 100 % of control; the T/C (dose: 200.0 mg/kg/injection, schedule: Q01DX009 (ip), vehicle: distilled water + Tween-80) is 99 % of control and 116 % of control; the T/C (dose: 400.0 mg/kg/injection, schedule: Q01DX009 (ip), vehicle: distilled water + Tween-80) was 116 % of control.

Turning to `CCOc1ccc2c(c1)n([O-])c1cc(Cl)ccc1[n+]2=O`, the T/C is, setting by setting: (dose: 12.5 mg/kg/injection, schedule: Q01DX005 (ip), vehicle: saline with Tween-80) 111 % of control; (dose: 25.0 mg/kg/injection, schedule: Q01DX005 (ip), vehicle: saline with Tween-80) 108 % of control; under setting [12], 103 % of control and 115 % of control; under setting [13], 107 % of control.

On to `O=C1Sc2ccccc2Cn2cccc21`, for which the T/C under setting [6] is 108 % of control, the T/C under setting [7] is 108 % of control and the T/C under setting [8] was 123 % of control.

In the case of `COc1cccc(/C=C2/C(=O)N(c3ccccc3)N=C2C)c1OC`, the T/C is, setting by setting: (dose: 60.0 mg/kg/injection, schedule: Q01DX005 (ip), vehicle: Klucel (hydroxypropylcellulose) (HPC)) 101 % of control; (dose: 120.0 mg/kg/injection, schedule: Q01DX005 (ip), vehicle: Klucel (hydroxypropylcellulose) (HPC)) 100 % of control; (dose: 240.0 mg/kg/injection, schedule: Q01DX005 (ip), vehicle: Klucel (hydroxypropylcellulose) (HPC)) 110 % of control.

On to `CC1=CC=CN2CCC(=O)N=C12`, for which the T/C is, setting by setting: under setting [1], 113 % of control; under setting [2], 101 % of control; under setting [3], 101 % of control.

On to `O=S1(=O)OCCCCO1`, for which the T/C by setting is: under setting [17], 107 % of control; under setting [18], 100 % of control.

With `CC(C)C(NC(=O)C(CSCc1ccccc1)NC(=O)OCc1ccccc1)C(=O)O` (stereo not given) (Cbz-Cys(Bn)-Val-OH; configuration not given here), the T/C was 97 % of control under setting [14] and 88 % of control under setting [15].

Consider `COc1cc(NCC(C)(O)CN2CCCC(C)C2C)c2ncccc2c1` (stereo not given), for which the T/C was 97 % of control under setting [17], 101 % of control under setting [18] and 112 % of control under setting [1].

As for `CC(C)(O)/C=C/C(=O)C(C)(O)C1C(O)CC2(C)C3CC=C4C(CC(=O)C(O)C4(C)C)C3(C)C(=O)CC12C` (stereo not given), the T/C reads like this: (dose: 0.5 mg/kg/injection, schedule: Q01DX009 (ip), vehicle: saline + alcohol) 119 % of control; (dose: 1.0 mg/kg/injection, schedule: Q01DX009 (ip), vehicle: saline + alcohol) 119 % of control; (dose: 2.0 mg/kg/injection, schedule: Q01DX009 (ip), vehicle: saline + alcohol) 121 % of control and 120 % of control.

For `CC[C@@]1(O)C(=O)OCc2c1cc1n(c2=O)Cc2cc3c(N)cccc3nc2-1`, the T/C (dose: 0.12 mg/kg/injection, schedule: Q01DX005 (ip), vehicle: saline with Tween-80) was 153 % of control; the T/C (dose: 0.25 mg/kg/injection, schedule: Q01DX005 (ip), vehicle: saline with Tween-80) was 153 % of control; the T/C (dose: 0.5 mg/kg/injection, schedule: Q01DX005 (ip), vehicle: saline with Tween-80) is 180 % of control and 204 % of control; the T/C (dose: 1.0 mg/kg/injection, schedule: Q01DX005 (ip), vehicle: saline with Tween-80) was 180 % of control.

Regarding `NC(=O)C1CCCN1C(=O)C1CCCN(CCCCCCN2CCCC(C(=O)N3CCCC3C(N)=O)C2)C1` (stereo not given), the T/C runs as follows: (dose: 60.0 mg/kg/injection, schedule: Q01DX005 (ip), vehicle: saline) 105 % of control; (dose: 120.0 mg/kg/injection, schedule: Q01DX005 (ip), vehicle: saline) 98 % of control.

In the case of `CCOP(=S)(N/N=C/c1ccc(C)s1)OCC`, the T/C under setting [14] was 110 % of control, the T/C under setting [15] is 112 % of control and the T/C under setting [16] is 117 % of control.

For the compound `O/N=C/C1CCCC[N-]1.O/N=C/C1CCCC[N-]1.O/N=C/C1CCCC[N-]1.[Cu]` (stereo not given), the T/C (dose: 1.56 mg/kg/injection, schedule: Q01DX009 (ip), vehicle: saline) is 87 % of control; the T/C (dose: 3.12 mg/kg/injection, schedule: Q01DX009 (ip), vehicle: saline) is 96 % of control; the T/C (dose: 6.25 mg/kg/injection, schedule: Q01DX009 (ip), vehicle: saline) is 87 % of control.
